Among the data in BindingDB's records for doi:10.1021/acs.jmedchem.8b01821 (Rheinische Friedrich-Wilhelms-University of Bonn, 2019) are EC50 values, retold here.

Data set [1] in a line: Reversal of ABCG2-mediated multidrug resistance in human MCF-7/MX cells assessed as potentiation of SN-38-induced cytotoxicity incubated for 72 hrs by MTT assay.
Data set [2] can be described thus: Reversal of ABCC1-mediated multidrug resistance in human H69AR cells assessed as potentiation of daunorubicin-induced cytotoxicity incubated for 72 hrs by MTT assay. Background: Tetrazolium dyes change colour on reduction, which living cells bring about.
Data set [3] is described as follows: Reversal of ABCG2 (unknown origin)-mediated multidrug resistance in MDCK2 cells co-expressing BCRP (unknown origin) assessed as potentiation of SN-38-induced cytotoxicity incubated for 72 hrs by MTT assay.
The nature of data set [4]: Reversal of ABCB1 (unknown origin)-mediated multidrug resistance in MDCK2 cells co-expressing MDR1 (unknown origin) assessed as potentiation of daunorubicin-induced cytotoxicity incubated for 72 hrs by MTT assay.
The nature of data set [5]: Reversal of ABCB1-mediated multidrug resistance in human A2780/ADR cells assessed as potentiation of daunorubicin-induced cytotoxicity incubated for 72 hrs by MTT assay.
Data set [6] can be described thus: Reversal of ABCC1 (unknown origin)-mediated multidrug resistance in MDCK2 cells co-expressing MRP1 (unknown origin) assessed as potentiation of daunorubicin-induced cytotoxicity incubated for 72 hrs by MTT assay.

Usually EC50 stands for the concentration that produces a half-maximal response.

Consider `CC1CCc2c(sc3nc(-c4cccnc4)nc(N4CCN(C(C(N)=O)c5ccccc5)CC4)c23)C1` (stereo unspecified), for which the 50% effective concentration (EC50) was 2730 nM in data set [1]; 2690 nM in data set [2]; 1310 nM in data set [3]; 361 nM in data set [4]; 748 nM in data set [5]; 728 nM in data set [6].
